# Source: ChEMBL document CHEMBL5726408, “Compounds for treatment of complement mediated disorders” (2017)
# pIC50: −log10 of the molar value.
# Target: Complement factor D (Homo sapiens, UniProt P00746)
# Experiment: Inhibition Assay: Human factor D (purified from human serum, Complement Technology, Inc.) at 80 nM final concentration is incubated with test compound at various concentrations for 5 minutes at room temperature in 50 mM Tris, 1M NaCl, pH 7.5. A synthetic substrate Z-L-Lys-SBzl and DTNB (Ellman's reagent) are added to final concentrations of 10 μM each. The increase in color is recorded at OD405 nm in a microplate in kinetic mode over 30 minutes with 30 second time points in a […]. IC50 values are calculated by non-linear regression from the percentage of inhibition of complement factor D activity as a function of test compound concentration.
# Complement factor D, sequence (P00746 whole entry): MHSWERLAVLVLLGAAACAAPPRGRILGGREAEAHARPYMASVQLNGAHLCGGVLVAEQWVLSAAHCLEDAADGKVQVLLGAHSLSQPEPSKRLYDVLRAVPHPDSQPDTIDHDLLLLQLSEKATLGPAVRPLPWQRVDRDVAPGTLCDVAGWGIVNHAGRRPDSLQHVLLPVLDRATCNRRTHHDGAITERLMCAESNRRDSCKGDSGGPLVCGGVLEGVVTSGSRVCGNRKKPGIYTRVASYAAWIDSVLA
row,pIC50,Compound
1,> 6.00,NC(=O)c1cn(CC(=O)N2C[C@H](F)C[C@H]2C(=O)Nc2cccc(-c3ccccc3Cl)c2F)c2ccsc12
2,> 6.00,NC(=O)c1nn(CC(=O)N2C[C@H](F)C[C@H]2C(=O)Nc2cccc(Br)n2)c2c1C=CC1N=C(c3cccc(Cl)c3)N=C21 (some centres not stated)
